Columns and labels:
Assay in all cases: CTG-3D luminescence at 96 h relative to day-0 seeding control (ratio to day 0); higher = more growth / less cytotoxicity; PDxO 3D drug screen, 96 h, CTG-3D normalised to day-0 seeding control.
HCI-017.E2 = tested on: HCI-017.E2 (organoid from an ER-positive breast cancer xenograft)
HCI-001 = tested on: HCI-001 (organoid from a triple-negative breast cancer xenograft)
HCI-002 = tested on: HCI-002 (organoid from a triple-negative breast cancer xenograft)
MDA-MB-231 = tested on: MDA-MB-231
HCI-023 = tested on: HCI-023 (organoid from a triple-negative breast cancer xenograft)

Cc1cc(Nc2ncnc3ccc(NC4=NC(C)(C)CO4)cc23)ccc1Oc1ccn2ncnc2c1 [tucatinib]
CTG-3D luminescence at 96 h
Conditions | 12.5 pM | 0.00025 µM | 0.005 µM | 0.1 µM | 1 µM | 10 µM | 100 µM | 625 fM
HCI-017.E2 | 1.74 | 1.98 | 2.09 | 1.95 | 1.79 | 1.413 | 0.0205 | 1.96
MDA-MB-231 | 4.57 | 4.49 | 4.6 | 4.56 | 4.67 | 4.64 | 0.058 | 4.58

CTG-3D luminescence at 96 h
Conditions | 12.5 pM | 0.00025 µM | 0.005 µM | 0.1 µM | 1 µM | 10 µM | 100 µM | 625 fM
HCI-001, days in culture: 240 | 1.47 | 0.88 | 0.65 | 1.24 | 1.37 | 1.02 | 0.0264 | 1.43
HCI-001, days in culture: 260 | 2.62 | 0.988 | 1.22 | 1.38 | 0.756 | 1.46 | 0.206 | 1.5
HCI-001, days in culture: 269 | 1.48 | 1.49 | 1.39 | 1.64 | 1.38 | 1.67 | 0.0618 | 1.69
HCI-001, days in culture: 327 | 1.8 | 1.6 | 1.87 | 1.75 | 1.44 | 1.16 | 0.0356 | 1.78
HCI-001, days in culture: 346 | 1.47 | 1.22 | 1.17 | 1 | 1.24 | 1.25 | 0.0455 | 1.21
HCI-001, days in culture: 364 | 1.49 | 1.19 | 1.34 | 0.88 | 0.895 | 1.28 | 0.0245 | 1.63
HCI-002, days in culture: 62 | 2.76 | 2.54 | 3.08 | 2.78 | 2.68 | 2.44 | 0.0174 | 2.91
HCI-002, days in culture: 82 | 2.73 | 3.27 | 2.09 | 2.6 | 2.75 | 1.59 | 0.0194 | 2.63
HCI-002, days in culture: 91 | 3.43 | 3.15 | 2.38 | 2.79 | 2.2 | 2.58 | 0.0163 | 3.48
HCI-002, days in culture: 191 | 2.63 | 2.43 | 2.47 | 2.5 | 3.12 | 2.01 | 0.0155 | 2.73
HCI-002, days in culture: 209 | 2.22 | 2.16 | 2.08 | 2.02 | 2.19 | 1.5 | 0.0106 | 2.39
HCI-002, days in culture: 227 | 5.23 | 5.28 | 4.84 | 4.86 | 4.14 | 3.82 | 0.0281 | 5.85
HCI-017.E2, days in culture: 85 | 2.39 | 3.33 | 2.72 | 2.78 | 3.27 | 1.71 | 0.109 | 2.31
HCI-023, days in culture: 111 | 1.15 | 1.13 | 1.06 | 1.2 | 0.941 | 1.06 | 0.00921 | 1.65
HCI-023, days in culture: 128 | 1.78 | 1.62 | 1.59 | 2.03 | 1.5 | 1.59 | 0.0109 | 1.69

C[C@]12CC[C@@H]3c4ccc(O)cc4C[C@@H](CCCCCCCCC[S+]([O-])CCCC(F)(F)C(F)(F)F)[C@H]3[C@@H]1CC[C@@H]2O (some centres not stated) [fulvestrant]
CTG-3D luminescence at 96 h
Conditions | 12.5 pM | 0.00025 µM | 0.005 µM | 0.1 µM | 1 µM | 10 µM | 100 µM | 625 fM
HCI-017.E2 | 1.94 | 2.16 | 2.05 | 1.92 | 1.53 | 1.4 | 1.55 | 1.88
MDA-MB-231 | 4.61 | 4.53 | 4.7 | 4.58 | 4.8 | 4.81 | 5.18 | 4.69

CTG-3D luminescence at 96 h
Conditions | 12.5 pM | 0.00025 µM | 0.005 µM | 0.1 µM | 1 µM | 10 µM | 100 µM | 625 fM
HCI-001, days in culture: 240 | 1.44 | 1.04 | 1.03 | 0.906 | 1.68 | 1.06 | 1.55 | 1.65
HCI-001, days in culture: 260 | 2.56 | 1.23 | 1.9 | 1.86 | 1.59 | 1.46 | 1.1 | 1.68
HCI-001, days in culture: 269 | 1.44 | 1.59 | 1.41 | 1.34 | 1.45 | 1.7 | 1.69 | 1.43
HCI-001, days in culture: 327 | 1.73 | 1.68 | 2.18 | 1.97 | 1.64 | 1.23 | 1.65 | 2.08
HCI-001, days in culture: 346 | 1.34 | 1.3 | 1.11 | 1.33 | 1.42 | 1.16 | 1.38 | 1.11
HCI-001, days in culture: 364 | 1.63 | 1.34 | 1.37 | 0.918 | 0.954 | 1.28 | 1.02 | 1.75
HCI-002, days in culture: 62 | 2.97 | 2.65 | 3.14 | 2.57 | 2.65 | 3.11 | 2.61 | 2.86
HCI-002, days in culture: 82 | 2.97 | 2.85 | 2.4 | 2.79 | 2.79 | 2.61 | 2.5 | 2.6
HCI-002, days in culture: 91 | 3.59 | 3.05 | 2.86 | 3.23 | 2.74 | 3.39 | 2.65 | 3.54
HCI-002, days in culture: 191 | 2.73 | 3.1 | 2.93 | 2.95 | 3.38 | 2.54 | 2.67 | 2.7
HCI-002, days in culture: 209 | 2.15 | 2.27 | 2.46 | 2.23 | 2.28 | 1.83 | 2.35 | 2.47
HCI-002, days in culture: 227 | 5.09 | 4.65 | 4.95 | 5.59 | 4.77 | 5 | 4.58 | 5.27
HCI-017.E2, days in culture: 85 | 2.84 | 3.05 | 2.96 | 2.18 | 1.78 | 1.41 | 1.89 | 2.52
HCI-023, days in culture: 111 | 1.5 | 1.45 | 1.4 | 1.27 | 0.963 | 1.24 | 0.911 | 1.61
HCI-023, days in culture: 128 | 1.83 | 1.54 | 1.6 | 2.08 | 1.33 | 1.56 | 1.11 | 1.75

From the supplement of paper PMC8882468
